# Source: article PMC5055303, “Identification and Tumour-Binding Properties of a Peptide with High Affinity to the Disialoganglioside GD2” (PLoS ONE, 2016)
# Columns and labels:
# [1] = test system: IMR32-induced xenografts; details: 1×10^11 pfu i.v., 10 min circulation; for phage recovery from tumour tissue: perfusion with DPBS, WHWRLPS-phage vs. control phage
# Description: Human IMR32 tumour cells were injected subcutaneously (s.c.) in the right and left femoral region of anesthetized NMRI nude mice (1×10^7 IMR32 cells in 50 μl DPBS and 150 μl Matrigel (BD)). For PET imaging, IMR32 cells were injected s.c. in the neck fold. Imaging and all other interventions were conducted on day 14 day after tumour cell inoculation.
# Of the GD2-specific phage or a control phage (GHGRLPS), 1×10^11 pfu were injected intravenously in three IMR32 tumour bearing mice per phage after an i.p. application of the anaesthetics xylazine (16 mg/kg) and ketamine (100 mg/kg). After 10 minutes, the mice were perfused with DPBS and brain, muscle, stomach, kidneys, heart, lung, spleen, liver and tumour were explanted and weighed. Tissues were homogenized in LB-medium using an Ultra-Turrax T25 homogenizer (IKA Labortechnik, Staufen, Germany). Phages were eluted by the addition of E.coli ER2738 bacteria and the phage titers were determined as described above.
# [2] = Phage binding assay on immobilized GD2; set-up: species or system human; details: 10 μg GD2 per well, 1 × 10^11 pfu phage, DPBS/Tween20 (0.3%), 1 h room temperature, Fig 1A-C
# Description: 96-well microtiter plates (Greiner, Frickenhausen, Germany) were coated with 10 μg GD2 or 10 μg GD1b per well for one hour at room temperature. Wells were then washed 3 times with DPBS/Tween20 (0.05%), blocked with BSA (1%)/DPBS/Tween20 (0.05%) for 1 hour at room temperature, washed again and subsequently filled with H2O. Plates were stored at 8°C until use. For in vitro selection, 2 x 10^11 plaque forming units (pfu) of the unselected M13 Ph.D.-7 phage display peptide library or the phage pool of the subsequent selection rounds was incubated with DPBS/Tween20 (0.1%, 0.2%, 0,3% or 0,4%) in a GD1b coated well for 1 hour at room temperature on a shaker. The phage solution was then transferred to a well containing GD2 and incubated for 1 hour at room temperature. After washing 10 times with DPBS/Tween20 (0.1%, 0.2%, 0,3% or 0,4%), bound phages were eluted by addition of E. coli ER2738 (OD600nm 0.4–0.5) for 30 minutes at 37°C. Phage amplification in 20 ml suspension containing E. coli ER2738 (hereafter referred to as phage pool) and titer determination were performed according to the manufacturer’s instructions with the modification that X-Gal was replaced by S-Gal and ferric ammonium citrate (both obtained from Sigma, Taufkirchen, Germany). For in vivo selection, 2 x 10^11 pfu of the phage pool of the 3rd selection round were injected into the tail vein of a mouse with a xenograft tumour induced by inoculation of IMR32 cells (2 x 10^7). Anaesthetised mice were perfused with DPBS 10 min after phage application. Tumours were explanted, homogenized in LB-medium and the phages were eluted with 900 μl of an E. coli ER2738 suspension at 37°C for 30 minutes in an incubator. Of this suspension, 10 μl were used for the determination of the phage titer. The residual volume was used for phage amplification in 20 ml E. coli ER2738 suspension according to the manufacturer’s instructions. Wells were coated with GD3, GD2, GD1b, GT1b or BSA (10 μg/ well each). For competition experiments, coated wells were pre-incubated with serial dilutions ranging from 10 μg to 100 pg of an 11-mer GD2-specific-peptide in DPBS for one hour at room temperature on a shaker and the supernatant was removed. In total, 1 × 10^11 pfu of the amplified phages were incubated with DPBS/Tween20 (0.3%) for one hour at room temperature on a shaker. After washing with 10 volumes of DPBS/Tween20 (0.3%), bound phages were eluted by adding E. coli ER2738 and phage titer determination was performed as described above. Additionally, an in vivo competition assay was performed in tumour-bearing mice. Therefore, 200 μg of the GD2-specific peptide and 1×10^11 pfu of the phage encoding the same peptide were co-injected intravenously in three IMR32 tumour bearing mice per experiment. Tumours were subsequently harvested and the phage titers were determined as described above.
# [3] = Phage binding assay on immobilized GD1b; set-up: species or system human; details: 10 μg GD1b per well, 1 × 10^11 pfu phage, 1 h room temperature, Fig 1A, 1B
# Description: 96-well microtiter plates (Greiner, Frickenhausen, Germany) were coated with 10 μg GD2 or 10 μg GD1b per well for one hour at room temperature. Wells were then washed 3 times with DPBS/Tween20 (0.05%), blocked with BSA (1%)/DPBS/Tween20 (0.05%) for 1 hour at room temperature, washed again and subsequently filled with H2O. Plates were stored at 8°C until use. For in vitro selection, 2 x 10^11 plaque forming units (pfu) of the unselected M13 Ph.D.-7 phage display peptide library or the phage pool of the subsequent selection rounds was incubated with DPBS/Tween20 (0.1%, 0.2%, 0,3% or 0,4%) in a GD1b coated well for 1 hour at room temperature on a shaker. The phage solution was then transferred to a well containing GD2 and incubated for 1 hour at room temperature. After washing 10 times with DPBS/Tween20 (0.1%, 0.2%, 0,3% or 0,4%), bound phages were eluted by addition of E. coli ER2738 (OD600nm 0.4–0.5) for 30 minutes at 37°C. […]
# Wells were coated with GD3, GD2, GD1b, GT1b or BSA (10 μg/ well each). […] Tumours were subsequently harvested and the phage titers were determined as described above.
# [4] = test system: IMR32-induced xenografts; experiment: In vivo competition of phage tumour homing by co-injected peptide; set-up: species or system NMRI nude mice; details: i.v. coinjection of 200 μg peptide and 1×10^11 pfu WHWRLPS-phage, 10 min; compared to injection of phage only; Fig 2D
# Description: (§1) Wells were coated with GD3, GD2, GD1b, GT1b or BSA (10 μg/ well each). For competition experiments, coated wells were pre-incubated with serial dilutions ranging from 10 μg to 100 pg of an 11-mer GD2-specific-peptide in DPBS for one hour at room temperature on a shaker and the supernatant was removed. In total, 1 × 10^11 pfu of the amplified phages were incubated with DPBS/Tween20 (0.3%) for one hour at room temperature on a shaker. After washing with 10 volumes of DPBS/Tween20 (0.3%), bound phages were eluted by adding E. coli ER2738 and phage titer determination was performed as described above. Additionally, an in vivo competition assay was performed in tumour-bearing mice. Therefore, 200 μg of the GD2-specific peptide and 1×10^11 pfu of the phage encoding the same peptide were co-injected intravenously in three IMR32 tumour bearing mice per experiment. Tumours were subsequently harvested and the phage titers were determined as described above.
# [5] = In vitro competition of WHWRLPS-phage binding to GD2 by soluble peptide; set-up: species or system human; details: Fig 2B
# Description: as §1
# [6] = test system: IMR32 neuroblastoma cells; experiment: Cell proliferation / viability assay (MTT); assay type: cell-based, human; details: 1 μg or 10 μg/ml peptide, maximum reduction after 96 h and 10 μg/ml vs. unrelated control peptide, quintuplicate, Fig 2A
# Description: Proliferation of the human neuroblastoma cell line IMR32 upon peptide addition was evaluated using MTT assays as described. Peptides were used at a concentration of 1 μg and 10 μg per well in a total volume of 200 μl per well. For each time point and each peptide concentration, experiments and controls were performed in quintuplicate.
# [7] = test system: IMR32-induced xenografts; experiment: Distribution of 111In- and 68Ga-labelled DOTA peptides in vivo (gamma counter); set-up: species or system NMRI nude mice
# Description: ^111In was solved in HCl and a pH 3 was adjusted. DOTA peptides (100 μg) were diluted in the same volume of sodium acetate buffer (pH 5.0). Next, a 1:1 mixture (v/v) of the ^111In /HCl solution and the peptide solution was heated to 80°C for 10 minutes before applying it to a C18 reverse-phase cartridge (Strata™-X 33 μm Polymeric Reversed Phase, Phenomenex, Aschaffenburg, Germany). After washing twice with 5 ml water, elution of the ^111In–labelled peptide was achieved using ethanol abs. and volume was adjusted to 100 μl using isotonic NaCl solution.
# ^111In—labelled DOTA peptides (200–700 kBq) or ^68Ga—labelled DOTA peptides (80–400 kBq) were injected intravenously into mice bearing IMR32-induced (2 x 10^7 cells s.c.) xenografts. Organs and blood of mice were collected between 5 min and 24 h after injection and their radioactive content was quantified using a gamma counter (Automatic Gamma Counter 1480 Wizard TM 3”). The injected dose was calculated by weighing the syringe with and without the tracer. Activity concentrations were corrected for radioactive decay. To evaluate the effects of kidney protection, a mixture containing Gelofusine (80μg/ g bodyweight)/lysine (400μg/ g weight)/arginine (400μg/ g weight) was injected i.v. 5 minutes before application of the tracer. Here, organs and blood were collected 1 h after injection. To compare ^68Ga -labelled peptides with the clinically established tracer, one group of tumour bearing mice received ^124I -MIBG (100–200 kBq) by intravenous injection.
# [8] = Phage binding assay on immobilized GD3; set-up: species or system human; details: 10 μg GD3 per well; 1 × 10^11 pfu phage, 1 h room temperature; Fig 1B
# Description: as §1
# [9] = Phage binding assay on immobilized GT1b; set-up: species or system human; details: 10 μg GT1b per well; 1 × 10^11 pfu phage, 1 h room temperature; Fig 1B
# Description: as §1
# [10] = one hour after tracer injection, Fig 3C
compound,measurement,setting,value
GHGRLPS,phage recovery from tumour tissue,[1]; Fig 2C,did not accumulate in tumour tissue
same,binding of phage to immobilized GD2 (phage output titer),[2],impaired binding
WHWRLGS,binding of phage to immobilized GD2 (phage output titer),[2],impaired binding
"WHWRLPS [WHWRLPS-phage, M13 phage clone displaying the hepta-peptide WHWRLPS]",phage recovery from tumour tissue,[1]; Fig 2C,Significantly higher amounts
same,organs with phage accumulation,[1]; attributed to mononuclear phagocytic system,"liver, the spleen and, to a lesser extent, in the lung"
same,phage recovery from other organs,"[1]; compared with control phage (GHGRLPS), Fig 2C",lower than that of the control
same,binding of phage to immobilized GD1b,[3]; listed as phage 7,lower affinity
same,binding of phage to immobilized GD2 (phage output titer),[2],specifically bound
same,binding of phage to immobilized GD2 (phage output titer),[2]; listed as phage 7,high affinity
WHWRLPS [WHWRLPS-peptide],reduction of WHWRLPS-phage recovery from tumour tissue,[4],84%
same,maximum reduction of WHWRLPS-phage binding to GD2,"[5]; in the presence of 10 μg peptide, wells pre-incubated with peptide 1 h",82%
same,peptide concentration sufficient to significantly reduce phage binding to GD2,"[5]; lowest dilution of the series 10 μg to 100 pg, p < 0.05 vs. 0 μg peptide",100 pg/mL
same,effect on IMR32 cell viability,[6],reduce cell viability
"WHWRLPS-DOTA [68Ga-labelled WHWRLPS peptide, WHWRLPS-DOTA peptide labelled with 68Ga]","accumulation in tumour tissue, 124I-MIBG vs. 68Ga-labelled peptide","[7]; mouse, in vivo",comparable for both tracers
same,tissue with highest accumulation,"[7]; mouse, in vivo",kidney
same,radioactive load in the kidneys with kidney protection,"[7]; mouse, in vivo, iv",reduced
same,radioactivity in the blood with kidney protection,"[7]; mouse, in vivo, iv",higher accumulation
same,"tumour-specific uptake, 68Ga- vs. 111In-labelled peptide","[7]; mouse, in vivo, iv",higher tumour-specific uptake
same,uptake across tissues in comparison to 111In-labelled peptides,"[7]; mouse, in vivo, iv",higher uptake across all tissues
"N=C(N)NCc1cccc([131I])c1 [124I-MIBG, metaiodobenzylguanidine, reference compound]","accumulation in tumour tissue, 124I-MIBG vs. 68Ga-labelled peptide",[7]; [10],comparable for both tracers
same,"activity concentration in blood, 124I-MIBG vs. 68Ga-labelled peptide",[7]; [10],higher
same,tissue with highest accumulation,"[7]; one hour after tracer injection, thyroid not blocked, Fig 3C",thyroid
GHGRLGS,binding of phage to immobilized GD2 (phage output titer),[2],impaired binding
WHGRLPS,binding of phage to immobilized GD2 (phage output titer),[2],impaired binding
GHWRLPS,binding of phage to immobilized GD2 (phage output titer),[2],impaired binding
"HAIYPRH [phage 2, reference compound]",binding of phage to immobilized GD1b,[3],did not bind
same,binding of phage to immobilized GD3,[8],did not bind
same,binding of phage to immobilized GT1b,[9],did not bind
same,binding of phage to immobilized GD2 (phage output titer),[2],did not bind
